The values that follow are results of earlier work, collected in patent US20220257490A1, “METHOD FOR DYEING KERATINOUS MATERIAL, COMPRISING THE USE OF AN ORGANOSILICON COMPOUND, A COLORED EFFECT PIGMENT AND A FILM-FORMING POLYMER IV” (Henkel AG & Co. KGaA, priority 2019, published 2022).

Structures are written as SMILES.

For the series the following is noted: 25° C.

Turning to `O=S(=O)([O-])c1ccc(N=Nc2c(O)ccc3ccccc23)cc1.[Na+]` [Acid Orange 7, sodium salt of 4-[(2-hydroxy-1-naphthyl)azo]benzene sulphonate], the solubility in water result is reported as “more than 7 g/L”. Turning to `Nc1cc(S(=O)(=O)[O-])cc2cc(S(=O)(=O)[O-])c(N=Nc3ccccc3)c(O)c12.[Na+].[Na+]` [Acid Red 33, disodium salt of 5-amino-4-hydroxy-3-(phenylazo)-naphthalene-2,7-disulphonate], the solubility in water is 2.5 g/L. For the compound `O=C([O-])c1c(Cl)c(Cl)c(Cl)c(Cl)c1-c1c2c(Br)cc(=O)c(Br)c-2oc2c(Br)c(O)cc(Br)c12.O=C([O-])c1c(Cl)c(Cl)c(Cl)c(Cl)c1-c1c2c(Br)cc(=O)c(Br)c-2oc2c(Br)c(O)cc(Br)c12.[Na+].[Na+]` [Acid Red 92, disodium salt of 3,4,5,6-tetrachloro-2-(1,4,5,8-tetrabromo-6-hydroxy-3-oxoxanthen-9-yl)benzoic acid], the solubility in water result is recorded as “greater than 10 g/L”. For `O=C([O-])C1=NN(c2ccc(S(=O)(=O)[O-])cc2)C(=O)C1N=Nc1ccc(S(=O)(=O)[O-])cc1.[Na+].[Na+].[Na+]` (stereo not shown) [Acid Yellow 23, trisodium salt of 4,5-dihydro-5-oxo-1-(4-sulfophenyl)-4-((4-sulfophenyl)azo)-1H-pyrazole-3-carboxylic acid], the “solubility in water (in words)” value is “highly soluble in water”.
